1 compound from article PMC11079064, “Discovery of a brain penetrant small molecule antagonist targeting LPA1 receptors to reduce neuroinflammation and promote remyelination in multiple sclerosis” (Scientific Reports, 2024) can be followed below.

Series [1] is described as follows: Plasma concentration time course after oral dose. The class given is in vivo. The following applies: 3 mg/kg oral, mouse.
The target of series [2] is T1, human LPA1 (Homo sapiens, UniProt Q92633).
T1 construct: expressed in transfected cells
The series is described as follows: Competitive membrane filter radioligand binding assay. The following applies: membranes from cells overexpressing human LPA1, LPA1 selective radioligand.
Experimental: Binding assay: Membranes were prepared from B103 cells stably expressing human LPA1 receptor. Cells were resuspended in a hypotonic buffer containing 0.25 M sucrose/0.2 mM EDTA. After 30 min on ice, cells were centrifuged at 41,415 × g. Membrane pellet was resuspended in 20 mM HEPES, pH 7.4 storage buffer and centrifuged at 41,415 × g. Membranes were resuspended in storage buffer + 1 mM dithiothreitol. Protein was quantified using the DC Protein Assay (Bio-Rad, Hercules, CA), aliquoted, and stored at – 80 °C until assay. A tritiated LPA1 selective antagonist[10] was used as radiolabeled ligand. […] The plates were shaken at 300 rpm for 2 h at room temperature. GF/B plates assay filter plates (Perkin Elmer, Boston, MA, Waltham, MA) were prepared by adding 50 µl of 0.5% polyethylenimine (Millipore Sigma, St. Louis, MO) and incubated at room temperature for > 30 min. The assay was terminated by vacuum filtration (Brandel Harvester). Plates were washed 3 × with 2 ml ice cold buffer containing 50 mM HEPES + 100 mM NaCl + 2 mM EDTA, pH 7.4. Once dry, 50 µl of Betaplate Scintillation Cocktail (Perkin Elmer, Boston, MA) was added to each well. After a 20 min incubation, plates were read on the Perkin Elmer TopCount.

Series [3] has as its system mouse cortical brain slices. Nature of the series: Lysolecithin-treated mouse organotypic slice culture, Mbp transcript. It counts as cell-based. Particulars: lysolecithin 18 h, then 3 days treatment; read-out: EC50 of Mbp transcript increase. The protocol: We next used an ex vivo organotypic brain slice culture to assess remyelination following a demyelinating insult. Mouse cortical brain slices were treated with lysolecithin, which induces acute demyelination through a non-specific lipid-based mechanism. […] After 3 additional days, the brain slices were processed for Mbp.
Evaluation of Mbp transcript in mouse brain slice culture: Brains were collected from P17 mice and placed into ice cold HBSS containing 20% FBS. Brains were bisected sagittally and 250 µm coronal slices made with a manual tissue chopper. Only slices anterior to the hippocampus displaying a discrete corpus callosum were used. Approximately 12 slices are obtained per animal. Slices were laid on a 30 mm MilliCell organotypic culture insert in a 6-well culture dish containing 1.1 mL growth media (DMEM, 25% HBSS-Ca^2+/-Mg^2+, 25% heat inactivated horse serum, glucose (5 g/l), 25 mM ascorbic acid and penicillin/streptomycin). Slices were cultured in vitro for 72 h with a 50% media change at 24 h. After 72 h, slices were demyelinated using media containing 0.5 mg/ml lysolecithin for 18 h. […] Slices were snap frozen and RNA extracted using the RNEasy Mini kit (Qiagen). […] Data was calculated using 2^−ΔΔCt , normalizing to 18S RNA and vehicle.

In series [4] the test system is rat OPCs. The series is described as follows: OPC-macrophage Transwell co-culture. The class given is cell-based. The following applies: in presence of macrophages, 300 nM. How it is done:
Following PDGF withdrawal, we observed a 41% decrease in the number of MBP^+ oligodendrocytes when co-cultured with macrophages.
OPCs were isolated as previously described. Cells were plated on the membrane layer of poly-L-lysine (Millipore Sigma, St. Louis, MO) coated Transwell culture plates (VWR, Radnor, PA) at a seeding density of 1 × 10^6 cells per well. Transwell culture plates have microporous membrane which allows for factors to flow between the top and bottom chamber. This permits us to minimize direct contact between the macrophage and OPCs while allowing for a constant, renewable source unlike conditioned media which can be depleted. […]
Isolation of macrophages. […] Differentiated oligodendrocytes were detected with a rat monoclonal antibody to MBP (Millipore Sigma, St. Louis, MO) and OPCs were detected with a rabbit monoclonal antibody to PDGFRα (Santa Cruz Biotechnology, Dallas, TX). Macrophages were detected with CD68 (Santa Cruz Biotechnology, Dallas, TX). […] Images were acquired using a 20× objective, each well was read in a 5 × 5 matrix. Data were analyzed using GraphPad Prism (La Jolla, CA) and statistical significance was determined by ANOVA.

SMILES strings stand for the structures.

T1 sequence (Q92633 whole entry): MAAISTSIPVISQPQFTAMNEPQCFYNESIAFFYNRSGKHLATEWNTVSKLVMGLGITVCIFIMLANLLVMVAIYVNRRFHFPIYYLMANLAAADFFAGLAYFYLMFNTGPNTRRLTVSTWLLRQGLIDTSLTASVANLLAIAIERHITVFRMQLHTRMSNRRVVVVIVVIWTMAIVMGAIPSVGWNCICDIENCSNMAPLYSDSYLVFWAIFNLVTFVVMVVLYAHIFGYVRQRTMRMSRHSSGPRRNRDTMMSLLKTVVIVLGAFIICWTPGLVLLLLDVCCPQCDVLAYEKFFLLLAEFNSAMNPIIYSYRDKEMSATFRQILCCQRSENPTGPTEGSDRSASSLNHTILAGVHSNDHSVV

As to `COc1ccc(NC(=O)N(c2ccccc2C(C)C)C2CCC(C(=O)O)CC2)c(OC(F)F)n1` (centres unmarked) [PIPE-791], in series [1], the “plasma concentration after 3 days” value was “below the limit of detection” and the “time of peak plasma concentration” value was determined as 2 h. The same compound gave an IC50 in series [2] of 2.63 nM. Also, in series [3], the EC50 turned out to be 12.1 nM. Besides, in series [4], the “increase in differentiation versus vehicle treated cultures” value stood at 2.1 fold.
